Test systems include A549 NSCLC; ACHN renal; BT-549 breast; CAKI-1 renal; COLO 205 colon; DU-145 prostate; HCT-116 colon; HS 578T breast; HT29 colon; KM12 colon; MCF7 breast; NCI/ADR-RES ovarian; RPMI-8226 leukemia; SF-268 CNS; SF-295 CNS; SK-MEL-2 melanoma; SK-MEL-5 melanoma; SK-OV-3 ovarian; SW-620 colon; U251 CNS.
What all share (test): NCI-60 cell line screen, 48 h

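Dose response: 5 concentrations. Exposure: 48 h. Format: 96-well plates. Endpoint: linear interpolation; highest concentration if not reached. The concentration for full growth arrest is given as TGI.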

As for `COC(=O)c1cc(=O)n(-c2ccc3nn(C)nc3c2)cc1C(=O)OC`, the TGI in the assay on A549 NSCLC, in the assay on ACHN renal, in the assay with BT-549 breast, in the assay on CAKI-1 renal, in the assay with COLO 205 colon and in the assay with DU-145 prostate was above 100 µM in each case. Besides, the TGI with HCT-116 colon, in the assay on HS 578T breast, in the assay with HT29 colon, in the assay on KM12 colon, in the assay on MCF7 breast and with NCI/ADR-RES ovarian was above 100 µM each time. Also, the TGI in the assay with RPMI-8226 leukemia, in the assay with SF-268 CNS, in the assay on SF-295 CNS, in the assay with SK-MEL-2 melanoma, in the assay on SK-MEL-5 melanoma and in the assay on SK-OV-3 ovarian was above 100 µM throughout. Moreover, the TGI with SW-620 colon and with U251 CNS was above 100 µM in each case.

With `O=C(O)CC(NC(=O)/C(=C/c1ccccc1)NC(=O)c1ccccc1)C(=O)O` (stereo not given), the TGI in the assay with A549 NSCLC, with ACHN renal, in the assay with BT-549 breast, in the assay on CAKI-1 renal, in the assay with COLO 205 colon and with DU-145 prostate was above 100 µM each time. Further, the TGI with HCT-116 colon, with HS 578T breast, in the assay with HT29 colon, with KM12 colon, with MCF7 breast and with NCI/ADR-RES ovarian was above 100 µM throughout. The TGI in the assay on RPMI-8226 leukemia, with SF-268 CNS, in the assay on SF-295 CNS, with SK-MEL-2 melanoma, with SK-MEL-5 melanoma and in the assay on SK-OV-3 ovarian was above 100 µM each time. The TGI with SW-620 colon and in the assay with U251 CNS was above 100 µM in each case.

For `Cc1ccc(OCC2OC(n3cnc4nc(Nc5ccc(Cl)c(Cl)c5)nc(Cl)c43)CC2Oc2ccc(C)cc2)cc1` (stereo not given), the TGI in the assay on A549 NSCLC, in the assay on ACHN renal, in the assay on BT-549 breast, in the assay with CAKI-1 renal, with COLO 205 colon and with DU-145 prostate was above 100 µM in each case. Also, the TGI in the assay with HCT-116 colon, in the assay with HS 578T breast, in the assay on HT29 colon, with KM12 colon, in the assay on MCF7 breast and with NCI/ADR-RES ovarian was above 100 µM throughout. Also, the TGI in the assay with RPMI-8226 leukemia, in the assay on SF-268 CNS, with SF-295 CNS, with SK-MEL-2 melanoma, in the assay with SK-MEL-5 melanoma and with SK-OV-3 ovarian was above 100 µM throughout. Further, the TGI in the assay with SW-620 colon and with U251 CNS was above 100 µM throughout.

For the compound `O=C1/C(=C/c2ccc(O)cc2)CCc2ccc([N+](=O)[O-])cc21`, the TGI with A549 NSCLC, with ACHN renal, in the assay with BT-549 breast, in the assay on CAKI-1 renal, in the assay on COLO 205 colon and with DU-145 prostate was above 100 µM throughout. Moreover, the TGI in the assay with HCT-116 colon is above 100 µM; with HS 578T breast, above 79.8 µM; in the assay with HT29 colon it was above 100 µM; in the assay with KM12 colon it was above 100 µM; in the assay on MCF7 breast, above 100 µM; in the assay on NCI/ADR-RES ovarian, above 100 µM. Moreover, the TGI with RPMI-8226 leukemia, in the assay with SF-268 CNS, with SF-295 CNS, with SK-MEL-2 melanoma, in the assay with SK-MEL-5 melanoma and with SK-OV-3 ovarian was above 100 µM in each case. The TGI in the assay on SW-620 colon and in the assay with U251 CNS was above 100 µM throughout.

On to `CCOC(=O)CC1(Cc2ccc(OCc3ccccc3)cc2)C(=O)OC(c2ccccc2)N1C(=O)c1ccccc1` (stereo not given), for which the TGI in the assay on A549 NSCLC, in the assay on ACHN renal, with BT-549 breast, in the assay on CAKI-1 renal, in the assay on COLO 205 colon and in the assay on DU-145 prostate was above 100 µM throughout. The TGI in the assay with HCT-116 colon, in the assay on HS 578T breast, with HT29 colon, with KM12 colon, in the assay on MCF7 breast and in the assay on NCI/ADR-RES ovarian was above 100 µM in each case. The TGI in the assay on RPMI-8226 leukemia, in the assay with SF-268 CNS, with SF-295 CNS, in the assay on SK-MEL-2 melanoma, with SK-MEL-5 melanoma and in the assay with SK-OV-3 ovarian was above 100 µM in each case. Further, the TGI in the assay on SW-620 colon and in the assay on U251 CNS was above 100 µM each time.

Take `O=C1CSC(c2ccccc2)N1c1ccc(-n2c(-c3ccccc3)nc3ccccc3c2=O)cc1` (stereo not given): the TGI in the assay on A549 NSCLC, in the assay on ACHN renal, in the assay with BT-549 breast, in the assay on CAKI-1 renal, with COLO 205 colon and with DU-145 prostate was above 100 µM throughout. Also, the TGI with HCT-116 colon, in the assay with HS 578T breast, with HT29 colon, in the assay on KM12 colon, in the assay on MCF7 breast and with NCI/ADR-RES ovarian was above 100 µM in each case. Besides, the TGI in the assay with RPMI-8226 leukemia, with SF-268 CNS, with SF-295 CNS, in the assay on SK-MEL-2 melanoma, in the assay on SK-MEL-5 melanoma and with SK-OV-3 ovarian was above 100 µM in each case. The TGI in the assay with SW-620 colon and in the assay on U251 CNS was above 100 µM throughout.

`C=C1[C@H](OCC(C)C)[C@@H](O)[C@@H](OC(=O)c2cccnc2)C(C)(C)/C=C/[C@H](C)[C@H](OC(C)=O)[C@@]2(O)C[C@@](C)(OC(C)=O)[C@H](OC(=O)c3ccccc3)[C@@H]2[C@H]1OC(C)=O`: the TGI in the assay with A549 NSCLC was above 5 µM; in the assay with ACHN renal, 2.87 µM; with BT-549 breast, above 4.23 µM; with CAKI-1 renal it was above 5 µM; in the assay with COLO 205 colon, above 5 µM; in the assay with DU-145 prostate it was above 5 µM. In addition, the TGI in the assay with HCT-116 colon is above 5 µM; with HS 578T breast, above 2.39 µM; in the assay on HT29 colon, 1.17 µM; in the assay with KM12 colon, above 2.97 µM; with MCF7 breast, above 5 µM; in the assay on NCI/ADR-RES ovarian, above 3.25 µM. Also, the TGI in the assay on RPMI-8226 leukemia is 3.35 µM; in the assay on SF-268 CNS, above 3.24 µM; with SF-295 CNS, above 4.14 µM; with SK-MEL-2 melanoma, above 3.78 µM; in the assay with SK-MEL-5 melanoma, above 5 µM; in the assay on SK-OV-3 ovarian, above 5 µM. Further, the TGI with SW-620 colon and in the assay with U251 CNS was above 5 µM throughout.

These data come from PubChem BioAssay (NCI).
